Measured values: the NIST ThermoML archive (doi:10.1016/j.jct.2018.01.019)

Experiment: molar heat capacity at constant pressure
Conditions: 101.33 kPa, Crystal 2, Small sample (50 mg) DSC

O=[Si]=O [silicon dioxide]
Conditions	molar heat capacity at constant pressure [J/K/mol]
285 K	43.21
290 K	43.7
295 K	44.22
300 K	44.74
305 K	45.21
310 K	45.69
315 K	46.16
320 K	46.62
325 K	47.09
330 K	47.56
335 K	48.02
340 K	48.49
345 K	48.94
350 K	49.39
355 K	49.78
360 K	50.22
365 K	50.62
370 K	51.02
375 K	51.38
380 K	51.76
385 K	52.15
390 K	52.52
395 K	52.89
400 K	53.25
405 K	53.61
410 K	53.99
415 K	54.34
420 K	54.7
425 K	55.03
430 K	55.38
435 K	55.74
440 K	56.07
445 K	56.42
450 K	56.75
455 K	57.1
460 K	57.4
465 K	57.69
470 K	58.01
475 K	58.29
480 K	58.59
485 K	58.87
490 K	59.12
495 K	59.37
500 K	59.63
505 K	59.91
510 K	60.16
515 K	60.41
520 K	60.66
525 K	60.91
530 K	61.15
535 K	61.41
540 K	61.66
545 K	61.92
550 K	62.19
555 K	62.45
560 K	62.73
565 K	63.01
570 K	63.26
575 K	63.49
580 K	63.74
585 K	64.01
590 K	64.24
595 K	64.46
600 K	64.69
605 K	64.89
610 K	65.09
615 K	65.3
620 K	65.5
625 K	65.73
630 K	65.97
635 K	66.17
640 K	66.38
645 K	66.62
650 K	66.84
655 K	67.01
660 K	67.18
665 K	67.38
670 K	67.57
675 K	67.75
680 K	67.94
685 K	68.16
690 K	68.35
695 K	68.56
700 K	68.75
705 K	68.95
710 K	69.14
715 K	69.35
720 K	69.58
725 K	69.69
730 K	69.83
735 K	70
740 K	70.22
745 K	70.45
750 K	70.72
755 K	71
760 K	71.26
780.95 K	71.65
781.12 K	71.67
781.28 K	71.59
781.45 K	71.55
781.61 K	71.6
781.78 K	71.49
781.94 K	71.36
782.11 K	71.45
782.28 K	71.45
782.45 K	71.54
782.62 K	71.57
782.78 K	71.51
782.95 K	71.6
783.12 K	71.5
783.28 K	71.3
783.45 K	71.26
783.62 K	71.08
783.78 K	71.24
783.95 K	71.41
784.12 K	71.45
784.28 K	71.52
784.45 K	71.54
784.62 K	71.49
784.78 K	71.52
784.95 K	71.46
785.12 K	71.45
785.28 K	71.49
785.45 K	71.49
785.62 K	71.49
785.79 K	71.54
785.95 K	71.6
786.12 K	71.72
786.29 K	71.77
786.45 K	71.65
786.62 K	71.5
786.78 K	71.36
786.95 K	71.21
787.12 K	71.35
787.29 K	71.46
787.46 K	71.52
787.62 K	71.51
787.78 K	71.6
787.95 K	71.68
788.12 K	71.69
788.28 K	71.59
788.45 K	71.56
788.62 K	71.65
788.79 K	71.81
788.95 K	71.75
789.12 K	71.7
789.29 K	71.78
789.45 K	71.82
789.62 K	71.7
789.79 K	71.66
789.95 K	71.68
790.12 K	71.65
790.28 K	71.4
790.45 K	71.28
790.62 K	71.32
790.78 K	71.49
790.95 K	71.6
791.12 K	71.65
791.29 K	71.82
791.45 K	71.83
791.62 K	71.77
791.79 K	71.7
791.95 K	71.64
792.12 K	71.58
792.29 K	71.65
792.45 K	71.69
792.61 K	71.77
792.78 K	71.83
792.95 K	71.78
793.12 K	71.69
793.28 K	71.67
793.45 K	71.75
793.61 K	71.63
793.78 K	71.65
793.95 K	71.8
794.12 K	71.75
794.29 K	71.74
794.45 K	71.73
